Assay results taken from patent US4877893A, “Process for the preparation of 2-(O-alkyl)-2-thio-1,3,2-oxathiophospholanes” (priority 1987, dated 1989).

What was measured:
Test in all cases: Fungicidal effect on infected agar nutrient media, colony diameter
Assay type in all cases: cell-based
Penicillium cyclopium = settings: 7th day after treatment, untreated 26.5
Method in brief: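 Agar media (70 mm diameter, 10 mm thick) infected with Penicillium cyclopium were treated with EC formulations at 1, 10, 100 and 1000 ppm active ingredient. Fungal colony diameter was measured on day 7 after treatment.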

Alternaria tenuis = settings: 5th day after treatment, untreated control 36.8
Method in brief: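 Agar media (70 mm diameter, 10 mm thick) infected with Alternaria tenuis, treated with EC formulations at 1, 10, 100 and 1000 ppm active ingredient. Fungicidal effect read on day 5 after treatment as fungal colony diameter.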

Sclerotinia sclerotinia = settings: 3rd day after treatment, untreated control 41.7
Protocol: Agar nutrient media (Diameter 70 MM, thickness 10 mm) infected by Sclerotonia sclerotinia suspension are treated with 20 EC formulations prepared according to Example 27 and comprising 1, 10, 100 and 1000 ppm, respectively of the active ingredient of the Formula I. The fungicidal effect of the compositions is evaluated on the 3rd day after treatment by measuring the diameter of the Fungi colonies.

| Structure (SMILES) | Diameter of colony (mm) (Penicillium cyclopium; 1 ppm) | Diameter of colony (mm) (Penicillium cyclopium; 10 ppm) | Diameter of colony (mm) (Penicillium cyclopium; 100 ppm) | Diameter of colony (mm) (Penicillium cyclopium; 1000 ppm) | Diameter of colony (mm) (Alternaria tenuis; 1 ppm) | Diameter of colony (mm) (Alternaria tenuis; 10 ppm) | Diameter of colony (mm) (Alternaria tenuis; 100 ppm) | Diameter of colony (mm) (Alternaria tenuis; 1000 ppm) | Diameter of colony (mm) (Sclerotinia sclerotinia; 1 ppm) | Diameter of colony (mm) (Sclerotinia sclerotinia; 10 ppm) | Diameter of colony (mm) (Sclerotinia sclerotinia; 100 ppm) | Diameter of colony (mm) (Sclerotinia sclerotinia; 1000 ppm) |
| --- | --- | --- | --- | --- | --- | --- | --- | --- | --- | --- | --- | --- |
| CCC(C)OP1(=S)OC(C)C(C)S1 (stereo not drawn) [Compound 53, 2-(0-1'-methyl-n-propyl)-2-thio-4,5-dimethyl1,3,2-oxathiophospholane] | 24.8 | 19.2 | 7.6 | 0 | 33.9 | 25.4 | 6.6 | 0 | 35.8 | 30.0 | 3.8 | 0 |
| CC(C)C(C)OP1(=S)OC(C)C(C)S1 (stereo not drawn) [Compound 54, 2-(0-1',2'-dimethyl-n-propyl)-2-thio-4,5-dimethyl1,3,2-oxathiophospholane] | 25.2 | 18.8 | 7.9 | 0 | 34.7 | 24.6 | 7.2 | 0 | 34.9 | 29.0 | 4.1 | 0 |
| CCOP1(=S)OCCS1 (stereo not drawn) [Compound 55] | 21.9 | 18.1 | 8.0 | 0 | 32.4 | 23.5 | 5.2 | 0 | 33.1 | 28.2 | 0 | 0 |
| S=P1(OCCS)OCCS1 (stereo not drawn) [Compound 56] | 24.6 | 18.1 | 8.8 | 0 | 32.8 | 22.1 | 6.0 | 0 | 40.2 | 31.5 | 1.2 | 0 |
| CC(C)OP1(=S)OCCS1 (stereo not drawn) [Compound 57] | 18.7 | 20.0 | 6.2 | 0 | 31.7 | 26.0 | 7.1 | 0 | 37.8 | 25.9 | 0 | 0 |
| CCCCOP1(=S)OCCS1 (stereo not drawn) [Compound 58] | 21.9 | 16.1 | 8.4 | 0 | 32.7 | 23.9 | 7.5 | 0 | 36.2 | 29.1 | 1.9 | 0 |
| CCCCOP1(=S)OCCS1 (stereo not drawn) [Compound 59, 2-(0-n-butyl)-2-thio-1,3,2-oxathiophospholane] | 25.0 | 18.7 | 7.6 | 0 | 34.0 | 24.1 | 5.6 | 0 | 34.3 | 28.5 | 4.0 | 0 |
| CCCCOP1(=S)OC(C)CS1 (stereo not drawn) [Compound 60, 2-(0-n-butyl)-2-thio-5-methyl-1,3,2-oxathiophospholane] | 23.6 | 19.9 | 8.2 | 0 | 33.3 | 25.5 | 6.8 | 0 | 33.7 | 30.0 | 3.8 | 0 |
| CCCCOP1(=S)OCC(C)S1 (stereo not drawn) [Compound 61, 2-(0-n-butyl)-2-thio-4-methyl-1,3,2-oxathiophospholane] | 24.0 | 19.0 | 8.3 | 0 | 36.2 | 24.3 | 6.2 | 0 | 35.6 | 28.9 | 2.7 | 0 |
| CCCC(C)OP1(=S)OCCS1 (stereo not drawn) [Compound 62, 2-(0-1'-methyl-n-butyl)-2-thio-1,3,2-oxathiophospholane] | 26.1 | 20.2 | 7.4 | 0 | 34.1 | 25.7 | 6.9 | 0 | 37.0 | 30.2 | 3.9 | 0 |
| CCCCOP1(=S)OC(C)C(C)S1 (stereo not drawn) [Compound 63, 2-(0-n-butyl)-2-thio-4,5-dimethyl-1,3,2-oxathiophospholane] | 24.8 | 18.5 | 8.5 | 0 | 35.0 | 24.2 | 6.7 | 0 | 34.2 | 29.9 | 3.1 | 0 |
| CCCCOP1(=S)OC(C)CS1 (stereo not drawn) [Compound 64] | 26.0 | 20.0 | 8.7 | 0 | 34.6 | 26.1 | 4.5 | 0 | 36.9 | 28.7 | 3.0 | 0 |
| CCCCC(C)OP1(=S)OC(C)C(C)S1 (stereo not drawn) [Compound 65] | 24.6 | 19.1 | 7.5 | 0 | 33.8 | 25.3 | 6.6 | 0 | 35.8 | 30.1 | 3.7 | 0 |
| CCCC(C)OP1(=S)OC(C)C(C)S1 (stereo not drawn) [Compound 66] | 25.0 | 18.6 | 7.5 | 0 | 34.5 | 24.4 | 7.0 | 0 | 34.8 | 28.8 | 4.0 | 0 |
| CC(C)CCOP1(=S)OCCS1 (stereo not drawn) [Compound 67] | 25.1 | 19.3 | 7.0 | 0 | 35.4 | 23.8 | 5.3 | 0 | 36.3 | 29.6 | 3.6 | 0 |
